Results as given in ChEMBL document CHEMBL1130706, “Synthesis and structure-activity relationships of adenosine analogs as inhibitors of trypanosomal glyceraldehyde-3-phosphate dehydrogenase. Modifications at positions 5' and 8” (Bioorg Med Chem Lett, 1998).

experiment: Inhibition of Leishmania mexicana GAPDH(glyceraldehyde-3-phosphate dehydrogenase)

`Nc1ncnc2c1ncn2[C@@H]1O[C@H](CO)[C@@H](O)[C@H]1O` [ADENOSINE] and `Nc1ncnc2c1ncn2C1O[C@H](CNC(=O)c2ccccc2)[C@@H](O)[C@H]1O` (some centres undefined) are within 1.5-fold of each other in Ki: 2500 µM for the first, 3300 µM for the second.

First: O=C1c2ccccc2C(=O)N1C[C@H]1OC(n2cnc3c(NCc4ccccc4)ncnc32)[C@H](O)[C@@H]1O (some centres undefined)
Second: NC(=O)c1ccccc1C(=O)NC[C@H]1OC(n2cnc3c(NCc4ccccc4)ncnc32)[C@H](O)[C@@H]1O (some centres undefined)
The Ki of the first is 5-fold higher: 4000 µM for the first, 800 µM for the second. The second binds more tightly here.

Going from `CC(C)Nc1nc2c(N)ncnc2n1C1O[C@H](CO)[C@@H](O)[C@H]1O` (some centres undefined) to `Nc1ncnc2c1nc(-c1cccs1)n2[C@@H]1O[C@H](CO)[C@@H](O)[C@H]1O`, the Ki falls from 1500 µM to 300 µM (5-fold).

Compared with `CC(C)=CCNc1ncnc2c1nc(-c1cccs1)n2C1O[C@H](CO)[C@@H](O)[C@H]1O` (some centres undefined), `OC[C@H]1O[C@@H](n2cnc3c(NCc4ccccc4)ncnc32)[C@H](O)[C@@H]1O` [N6-BENZYLADENOSINE] is 310-fold higher in Ki: 9 µM for the first, 2800 µM for the second.

experiment: Compound was tested for the inhibition of Leishmania mexicana GAPDH(glyceraldehyde-3-phosphate dehydrogenase)

In the case of `CC(C)=CCNc1ncnc2c1nc(-c1cccs1)n2C1O[C@H](CO)[C@@H](O)[C@H]1O` (some centres undefined), the Ki is reported as 18 µM.
